Among the test systems are A498 renal; CAKI-1 renal; HCC-2998 colon; 786-0 renal; BT-549 breast; MALME-3M melanoma; MDA-N; OVCAR-8 ovarian; SR leukemia; DLD-1 colon; DMS 273 small cell lung; SNB-78 CNS; XF 498 CNS; M19-MEL melanoma.
What all share (test): growth of human tumour cells (NCI), 48 h

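Values below derive from 48-hour exposures of cells grown in 96-well plates, with endpoints linearly interpolated between the two concentrations bracketing the appropriate inhibition level. GI50: concentration for 50% inhibition of growth. TGI: concentration producing complete growth inhibition.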

`Clc1ccc(C2CC(c3cccc(Nc4ccncc4)c3)=NN2c2ccc(Cl)cc2)cc1` (configuration not stated): the GI50 in the test with A498 renal was 1.56 µM; in the test on CAKI-1 renal, 1.46 µM; in the test on HCC-2998 colon, 1.73 µM. Moreover, the TGI in the test with A498 renal turned out to be 2.94 µM; with CAKI-1 renal it was 2.79 µM; in the test on HCC-2998 colon, 3.27 µM.
Take `COc1ccc(C(=O)O[C@H]2CC[C@@]3(C)[C@@H]4CC[C@H]5[C@]6(O)C[C@H](O)[C@@]7(O)[C@@H](CN8C[C@@H](C)CC[C@H]8[C@@]7(C)O)[C@]6(O)C[C@@]53OC24O)cc1OC`: the TGI with 786-0 renal, in the test with A498 renal, with BT-549 breast, in the test with CAKI-1 renal, with HCC-2998 colon and in the test with MALME-3M melanoma was over 100 µM throughout. The TGI with MDA-N, with OVCAR-8 ovarian and in the test on SR leukemia was over 100 µM throughout.
As for `CC[C@@]1(OC(=O)CN(C)C)C(=O)OCc2c1cc1n(c2=O)Cc2cc3c(N)cccc3nc2-1`, the GI50 in the test on A498 renal was 0.0208 µM; in the test with BT-549 breast it was 0.0634 µM; with CAKI-1 renal it was under 0.01 µM; with HCC-2998 colon, 0.131 µM; with OVCAR-8 ovarian, 0.0272 µM; in the test with SR leukemia, under 0.01 µM. Further, the TGI was 0.0987 µM in the test with A498 renal; over 100 µM with BT-549 breast; 0.0537 µM in the test with CAKI-1 renal; 0.875 µM in the test with HCC-2998 colon; 0.488 µM with OVCAR-8 ovarian; 0.176 µM with SR leukemia.
On to `Clc1cc2ccccc2c2ccccc12`, for which the TGI is over 100 µM in the test with 786-0 renal; over 100 µM with A498 renal; 96.7 µM with BT-549 breast; over 100 µM in the test with CAKI-1 renal; over 100 µM in the test on HCC-2998 colon; over 100 µM with MALME-3M melanoma. Moreover, the TGI in the test on OVCAR-8 ovarian and with SR leukemia was over 100 µM throughout.
As to `NC1C=NNC1=O` (configuration not stated), the TGI in the test on CAKI-1 renal, with DLD-1 colon, in the test on DMS 273 small cell lung, in the test with HCC-2998 colon, with MALME-3M melanoma and in the test on OVCAR-8 ovarian was over 100 µM throughout. Moreover, the TGI in the test on SNB-78 CNS and in the test with XF 498 CNS was over 100 µM each time.
With `CCC1C(C#N)=C(O)NC(O)=C1C#N`, the TGI in the test on A498 renal, in the test with CAKI-1 renal, in the test on DLD-1 colon, with DMS 273 small cell lung, in the test on HCC-2998 colon and in the test with M19-MEL melanoma was over 100 µM in each case. Further, the TGI with MALME-3M melanoma, in the test on OVCAR-8 ovarian, in the test on SNB-78 CNS and with XF 498 CNS was over 100 µM in each case.
`O=C(O)C(O)(c1ccc(-c2ccccc2)cc1)c1ccc(-c2ccccc2)cc1`: the TGI in the test on 786-0 renal was 80.4 µM; with A498 renal, 43.5 µM; in the test with BT-549 breast, 42.7 µM; in the test on CAKI-1 renal, over 100 µM; in the test on MALME-3M melanoma, 60.4 µM; in the test on MDA-N it was 34.5 µM. For the same compound, the TGI in the test on OVCAR-8 ovarian and in the test with SR leukemia was over 100 µM in each case.
As for `C[C@]12Cc3cnc(-c4ccccc4)nc3C[C@@H]1CC[C@@H]1[C@@H]2CC[C@@]2(C)[C@H]1CC[C@]2(C)O`, the TGI with 786-0 renal amounted to 27.5 µM; with A498 renal it was 43.2 µM; in the test on BT-549 breast it was 54.6 µM; in the test on CAKI-1 renal, 16.6 µM; in the test on HCC-2998 colon it was 37.9 µM; with MALME-3M melanoma it was 43.5 µM. Also, the TGI in the test with MDA-N was 48.9 µM; in the test on OVCAR-8 ovarian, 40.4 µM; in the test with SR leukemia it was 88.5 µM.
Turning to `O=NN1C(c2ccccc2)C2CCCC(C2=O)C1c1ccccc1` (configuration not stated), the TGI was over 94.1 µM in the test with A498 renal; 94.1 µM in the test on CAKI-1 renal; over 100 µM in the test with DLD-1 colon; 55.2 µM in the test with DMS 273 small cell lung; 34.4 µM with HCC-2998 colon; 37.1 µM with M19-MEL melanoma. Moreover, the TGI with MALME-3M melanoma was 19.8 µM; in the test with OVCAR-8 ovarian, over 100 µM; in the test with SNB-78 CNS, over 100 µM; in the test with XF 498 CNS it was 33.3 µM.
For the compound `COc1ccc(C(=O)NC2=C(Cl)C(=O)c3ccccc3C2=O)cc1`, the TGI in the test on A498 renal came to 27.7 µM; in the test with BT-549 breast it was 9.64 µM; in the test on CAKI-1 renal, 6.94 µM; with HCC-2998 colon, 16.9 µM; in the test on MALME-3M melanoma, 3.19 µM; in the test with MDA-N, 10.7 µM. Moreover, the TGI in the test with OVCAR-8 ovarian was 14.4 µM; with SR leukemia, over 19.6 µM.
As to `O=C1CCCC/C1=C1/SC(=Nc2ccccc2)C(=Nc2ccccc2)N1c1ccccc1`, the TGI with A498 renal, in the test on BT-549 breast, in the test on CAKI-1 renal, with HCC-2998 colon, in the test with MALME-3M melanoma and with MDA-N was over 100 µM throughout. Moreover, the TGI in the test with OVCAR-8 ovarian and in the test on SR leukemia was over 100 µM each time.
On to `COc1ccc(NC(=S)NNC(=O)c2nsc3ccccc23)cc1`, for which the TGI was 81.5 µM in the test with DMS 273 small cell lung; over 100 µM in the test with HCC-2998 colon; over 100 µM in the test with M19-MEL melanoma; over 100 µM in the test on OVCAR-8 ovarian; over 100 µM in the test on SNB-78 CNS; over 100 µM in the test on SR leukemia.

(Values after PubChem BioAssay (NCI).)
